Measured values from PubChem BioAssay AID256 (DTP/NCI, 2004).
Toxic doses and inconclusive results are not listed. The calls were made as follows: active = survival T/C of 150% or more; inactive = T/C below 125% in these data.

Test system: CD2F1 mice, L1210 leukemia ip, survival T/C
Assay: NCI In Vivo Anticancer Drug Screen. Data for tumor model L1210 Leukemia (intraperitoneal) in CD2F1 (CDF1) mice
Conditions: higher = longer survival
Outline: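 Tumor-bearing mice (transplanted tumor) were split into treated and vehicle control groups, and the measured endpoint of each treated group was divided by that of its vehicle controls.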

[1] = endpoint: mean survival time, dose: 50.0 mg/kg/injection, schedule: Q01DX009 (ip), vehicle: saline with Tween-80
[2] = endpoint: mean survival time, dose: 100.0 mg/kg/injection, schedule: Q01DX009 (ip), vehicle: saline with Tween-80
[3] = endpoint: mean survival time, dose: 200.0 mg/kg/injection, schedule: Q01DX009 (ip), vehicle: saline with Tween-80
[4] = endpoint: mean survival time, dose: 100.0 mg/kg/injection, schedule: Q04DX003 (ip), vehicle: saline with Tween-80
[5] = endpoint: mean survival time, dose: 200.0 mg/kg/injection, schedule: Q04DX003 (ip), vehicle: saline with Tween-80
[6] = endpoint: mean survival time, dose: 400.0 mg/kg/injection, schedule: Q01DX009 (ip), vehicle: saline with Tween-80
[7] = endpoint: mean survival time, dose: 400.0 mg/kg/injection, schedule: Q04DX003 (ip), vehicle: saline with Tween-80
[8] = endpoint: mean survival time, dose: 12.5 mg/kg/injection, schedule: Q01DX005 (ip), vehicle: saline with Tween-80
[9] = endpoint: mean survival time, dose: 25.0 mg/kg/injection, schedule: Q01DX005 (ip), vehicle: saline with Tween-80
[10] = endpoint: mean survival time, dose: 50.0 mg/kg/injection, schedule: Q01DX005 (ip), vehicle: saline with Tween-80
[11] = endpoint: mean survival time, dose: 100.0 mg/kg/injection, schedule: Q01DX005 (ip), vehicle: saline with Tween-80
[12] = endpoint: mean survival time, dose: 200.0 mg/kg/injection, schedule: Q01DX005 (ip), vehicle: saline with Tween-80
[13] = endpoint: mean survival time, dose: 100.0 mg/kg/injection, schedule: Q01DX001 (ip), vehicle: saline with Tween-80

Measured: T/C

c1ccc(C(OOC(c2ccccc2)(c2ccccc2)c2ccccc2)(c2ccccc2)c2ccccc2)cc1
inactive: [1] 90 % of control | [2] 90 % of control | [3] 90 % of control

CC1(C)CCOC(CC(=O)OCc2ccccc2)=N1
inactive: [2] 96 % of control | [4] 93 % of control | [3] 96 % of control | [5] 92 % of control | [6] 95 % of control | [7] 88 % of control

CN1C2C=CC(=O)C1C1C(=O)N(c3ccccc3)C(=O)C12 (centres undefined)
inactive: endpoint: median survival time, dose: 12.5 mg/kg/injection, schedule: Q01DX005 (ip), vehicle: Klucel (hydroxypropylcellulose) (HPC) 93 % of control | endpoint: median survival time, dose: 25.0 mg/kg/injection, schedule: Q01DX005 (ip), vehicle: Klucel (hydroxypropylcellulose) (HPC) 98 % of control | endpoint: median survival time, dose: 50.0 mg/kg/injection, schedule: Q01DX005 (ip), vehicle: Klucel (hydroxypropylcellulose) (HPC) 93 % of control | endpoint: median survival time, dose: 100.0 mg/kg/injection, schedule: Q01DX005 (ip), vehicle: Klucel (hydroxypropylcellulose) (HPC) 94 % of control | endpoint: median survival time, dose: 200.0 mg/kg/injection, schedule: Q01DX005 (ip), vehicle: Klucel (hydroxypropylcellulose) (HPC) 95 % of control

COC(=O)CCCC1CCC(=NNc2ccc([N+](=O)[O-])cc2[N+](=O)[O-])CC1 (centres undefined)
inactive: [4] 86 % of control | [5] 96 % of control | [7] 93 % of control

Nc1ccccc1OCCCn1cc(-c2ccc(Cl)c(Cl)c2)c(N)nc1=O
inactive: endpoint: mean survival time, dose: 50.0 mg/kg/injection, schedule: Q01DX009 (ip), vehicle: Klucel (hydroxypropylcellulose) (HPC) 94 % of control | endpoint: mean survival time, dose: 100.0 mg/kg/injection, schedule: Q01DX009 (ip), vehicle: Klucel (hydroxypropylcellulose) (HPC) 101 % of control | endpoint: mean survival time, dose: 200.0 mg/kg/injection, schedule: Q01DX009 (ip), vehicle: Klucel (hydroxypropylcellulose) (HPC) 90 % of control

OCCN1CCSC1=S
inactive: [4] 101 % of control | [5] 97 % of control | [7] 92 % of control

CC(=O)CC(=O)c1ccccc1.CC(=O)CC(=O)c1ccccc1.CC(=O)CC(=O)c1ccccc1.[Tb]
inactive: [4] 93 % of control | [5] 91 % of control | [7] 88 % of control

CC(=O)OC1CCC2(C)C(=C(C)CC3C2CCC2(C)C(C(C)=O)CCC32)C1 (centres undefined)
inactive: [2] 98 % of control | [3] 95 % of control | [6] 97 % of control

NNc1ccc(-c2ccc(NN)cc2)cc1
inactive: [2] 101 % of control | [3] 95 % of control | [6] 96 % of control

CN1CCC(CO)C1 (centres undefined)
inactive: endpoint: mean survival time, dose: 25.0 mg/kg/injection, schedule: Q01DX009 (ip), vehicle: water 91 % of control | endpoint: mean survival time, dose: 50.0 mg/kg/injection, schedule: Q01DX009 (ip), vehicle: saline 109 % of control | endpoint: mean survival time, dose: 50.0 mg/kg/injection, schedule: Q01DX009 (ip), vehicle: water 87 % of control | endpoint: mean survival time, dose: 100.0 mg/kg/injection, schedule: Q01DX009 (ip), vehicle: saline 101 % of control | endpoint: mean survival time, dose: 100.0 mg/kg/injection, schedule: Q01DX009 (ip), vehicle: water 87 % of control | endpoint: mean survival time, dose: 100.0 mg/kg/injection, schedule: Q04DX003 (ip), vehicle: saline 96 % of control | endpoint: mean survival time, dose: 200.0 mg/kg/injection, schedule: Q01DX009 (ip), vehicle: saline 101 % of control | endpoint: mean survival time, dose: 200.0 mg/kg/injection, schedule: Q01DX009 (ip), vehicle: water 89 % of control | endpoint: mean survival time, dose: 200.0 mg/kg/injection, schedule: Q04DX003 (ip), vehicle: saline 97 % of control

Nc1nc(Br)c(Br)nc1N
inactive: endpoint: mean survival time, dose: 100.0 mg/kg/injection, schedule: Q01DX009 (ip), vehicle: other 92 % of control | endpoint: mean survival time, dose: 200.0 mg/kg/injection, schedule: Q01DX009 (ip), vehicle: other 103 % of control | endpoint: mean survival time, dose: 400.0 mg/kg/injection, schedule: Q01DX009 (ip), vehicle: other 95 % of control

CCCCCCCCCCCCCCCCCCNC(=O)Nc1ccc(CC)cc1
inactive: [2] 98 % of control | [4] 94 % of control | [3] 109 % of control | [5] 89 % of control | [6] 110 % of control | [7] 93 % of control

CC(=O)Nc1nc(N)nc2nonc12
inactive: [8] 100 % of control | [9] 98 % of control | [10] 100 % of control | [11] 96 % of control | [12] 93 % of control

COc1c(O)ccc(/C=C2/SC(=S)NC2=O)c1[N+](=O)[O-]
inactive: [13] 101 % of control

CCCCCCCCCCCc1cc(=O)n(-c2cc(Cl)ccc2Cl)n1C
inactive: endpoint: mean survival time, dose: 25.0 mg/kg/injection, schedule: Q04DX002 (ip), vehicle: saline with Tween-80 96 % of control | endpoint: mean survival time, dose: 50.0 mg/kg/injection, schedule: Q04DX002 (ip), vehicle: saline with Tween-80 88 % of control | endpoint: mean survival time, dose: 100.0 mg/kg/injection, schedule: Q04DX002 (ip), vehicle: saline with Tween-80 86 % of control

Cc1[nH]nc2[nH]cnc(=S)c12
inactive: [8] 90 % of control | [9] 88 % of control | [10] 87 % of control | [11] 94 % of control | [12] 96 % of control

O=c1c(-c2ccccc2)nn(C2OC(CO)C(O)C(O)C2O)c(=S)n1-c1ccccc1 (centres undefined)
inactive: endpoint: mean survival time, dose: 7.8 mg/kg/injection, schedule: Q01DX005 (ip), vehicle: water 101 % of control | endpoint: mean survival time, dose: 15.6 mg/kg/injection, schedule: Q01DX005 (ip), vehicle: water 96 % of control | endpoint: mean survival time, dose: 31.3 mg/kg/injection, schedule: Q01DX005 (ip), vehicle: water 101 % of control | endpoint: mean survival time, dose: 62.5 mg/kg/injection, schedule: Q01DX005 (ip), vehicle: water 93 % of control | endpoint: mean survival time, dose: 125.0 mg/kg/injection, schedule: Q01DX005 (ip), vehicle: water 101 % of control

O=[N+]([O-])c1cccc(OCCOc2ccccc2)c1
inactive: [4] 98 % of control | [5] 94 % of control | [7] 91 % of control

O=CC(NC(=O)OCc1ccccc1)C(O)C(O)C(O)CO (centres undefined)
inactive: endpoint: mean survival time, dose: 25.0 mg/kg/injection, schedule: Q01DX001 (ip), vehicle: saline with Tween-80 105 % of control | endpoint: mean survival time, dose: 50.0 mg/kg/injection, schedule: Q01DX001 (ip), vehicle: saline with Tween-80 102 % of control | [13] 102 % of control

CC(C#N)(Nc1ccccc1)c1ccc(Cl)cc1 (centres undefined)
inactive: [1] 86 % of control | [3] 97 % of control | [5] 87 % of control

CC(=O)Nc1ncc2nc(C)c(C)nc2n1
inactive: [1] 98 % of control

CC(C)N(C(=S)S)C(C)C
inactive: [4] 101 % of control | [5] 100 % of control | [7] 92 % of control

Cc1cn(C2CC(O)C(CO)O2)c(=O)nc1N1CCCC1 (centres undefined)
inactive: endpoint: median survival time, dose: 12.5 mg/kg/injection, schedule: Q01DX005 (ip), vehicle: water 103 % of control | endpoint: median survival time, dose: 25.0 mg/kg/injection, schedule: Q01DX005 (ip), vehicle: water 108 % of control | endpoint: median survival time, dose: 50.0 mg/kg/injection, schedule: Q01DX005 (ip), vehicle: water 102 % of control | endpoint: median survival time, dose: 100.0 mg/kg/injection, schedule: Q01DX005 (ip), vehicle: water 101 % of control | endpoint: median survival time, dose: 200.0 mg/kg/injection, schedule: Q01DX005 (ip), vehicle: water 102 % of control

CC1c2ccccc2CC2(C)CN12 (centres undefined)
inactive: endpoint: mean survival time, dose: 75.0 mg/kg/injection, schedule: Q01DX001 (ip), vehicle: saline 103 % of control | endpoint: mean survival time, dose: 150.0 mg/kg/injection, schedule: Q01DX001 (ip), vehicle: saline 101 % of control | endpoint: mean survival time, dose: 300.0 mg/kg/injection, schedule: Q01DX001 (ip), vehicle: saline 97 % of control

CNC(=O)c1ccc(C(=O)NC)cc1
inactive: [2] 86 % of control | [3] 94 % of control | [6] 96 % of control

N=C(N)c1ccccc1
inactive: endpoint: mean survival time, dose: 100.0 mg/kg/injection, schedule: Q01DX001 (ip), vehicle: saline 94 % of control | endpoint: mean survival time, dose: 200.0 mg/kg/injection, schedule: Q01DX001 (ip), vehicle: saline 100 % of control | endpoint: mean survival time, dose: 400.0 mg/kg/injection, schedule: Q01DX001 (ip), vehicle: saline 94 % of control

O=C(O)CCCC(=O)C1CCCCC1
inactive: [1] 103 % of control | [2] 103 % of control | [4] 95 % of control | [3] 98 % of control | [5] 90 % of control

CN(C)C=Nc1ccc(Cl)c(Cl)c1
inactive: endpoint: mean survival time, dose: 25.0 mg/kg/injection, schedule: Q04DX003 (ip), vehicle: saline 98 % of control | endpoint: mean survival time, dose: 50.0 mg/kg/injection, schedule: Q04DX003 (ip), vehicle: saline 92 % of control

CCOC(=O)c1c2cccccc-2c(C(=O)OCC)c1N
inactive: [4] 95 % of control | [5] 109 % of control | [7] 92 % of control

O=[N+]([O-])c1ccc(Cl)c(CNc2ncnc3c2ncn3C2CCCCO2)c1 (centres undefined)
inactive: endpoint: mean survival time, dose: 100.0 mg/kg/injection, schedule: Q01DX009 (ip), vehicle: acetone 95 % of control | endpoint: mean survival time, dose: 200.0 mg/kg/injection, schedule: Q01DX009 (ip), vehicle: acetone 97 % of control | endpoint: mean survival time, dose: 400.0 mg/kg/injection, schedule: Q01DX009 (ip), vehicle: acetone 93 % of control
